≈ marks a conversion by molar mass, not a printed value. Like-named read-outs stand apart in the source and are kept apart here.

One may read the melting point as the temperature, or range, at which the solid turns liquid.

In one series the test system is M. Smegmatis ATCC607. Description: In-vitro anti-bacterial activity against strain M. smegmatis ATCC607. Type of series: cell-based. Conditions: for IC90: Mycolicibacterium smegmatis. The method, then: Flat-bottom, sterile 96-well plastic microtiter plates were filled with 180 μl of sterile deionized water, supplemented with 0.25% BSA. Subsequently, stock solutions (7.8× final test concentration) of compounds were added in 45 μl volumes to a series of duplicate wells in column 2 so as to allow evaluation of their effects on bacterial growth. Serial five-fold dilutions (45 μl in 180 μl) were made directly in the microtiter plates from column 2 to 11 using a customised robot system (Zymark Corp., Hopkinton, Mass.). Pipette tips were changed after every 3 dilutions to minimize pipetting errors with high hydrophobic compounds. Untreated control samples with (column 1) and without (column 12) inoculum were included in each microtiter plate. Approximately 250 CFU per well of bacteria inoculum, in a volume of 100 μl in 2.8× Mueller-Hinton broth medium, was added to the rows A to H, except column 12. The same volume of broth medium without inoculum was added to column 12 in row A to H. The cultures were incubated at 37° C. for 48 hours in a humidified 5% CO2 atmosphere (incubator with open air valve and continuous ventilation). At the end of incubation, two days after inoculation, the bacterial growth was quantitated fluorometrically. Therefore Alamar Blue (10×) was added to all wells in a volume of 20 μl and plates were incubated for another 2 hours at […]
The fluorescence was read in a computer-controlled fluorometer (Cytofluor, Biosearch) at an excitation wavelength of 530 nm and an emission wavelength of 590 nm (gain 30).

For series [1], the system named is Staphylococcus aureus (ATCC29213). Description: Microtitre plate assay, IC90 determination, STA 29213. Type of series: cell-based. Conditions: Staphylococcus aureus ATCC29213, 90% inhibitory concentration for bacterial growth, resazurin; for IC90: read-out: IC90 (μg/ml) STA 29213. As to the method:
(§1) The bacteria used in this study were grown overnight in flasks containing 100 ml Mueller-Hinton Broth (Becton Dickinson—cat. no. 275730) in sterile de-ionized water, with shaking, at 37° C. Stocks (0.5 ml/tube) were stored at −70° C. until use. Bacteria titrations were performed in microtiter plates to detect the TCID50, in which the TCID50 represents the dilution that gives rise to bacterial growth in 50% of inoculated cultures.
(§2) In general, an inoculum level of approximately 100 TCID50 was used for susceptibility testing.
(§3) Flat-bottom, sterile 96-well plastic microtiter plates were filled with 180 μl of sterile deionized water, supplemented with 0.25% BSA. Subsequently, stock solutions (7.8× final test concentration) of compounds were added in 45 μl volumes in column 2 Serial five-fold dilutions (45 μl in […]) were made directly in the microtiter plates from column 2 to reach column 11. Untreated control samples with (column 1) and without (column 12) inoculum were included in each microtiter plate. Depending on the bacteria type, approximately 10 to 60 CFU per well of bacteria inoculum (100 TCID50), in a volume of 100 μl in 2.8× Mueller-Hinton broth medium, was added to the rows A to H, except column 12. The same volume of broth medium without inoculum was added to column 12 in row A to H. The cultures were incubated at 37° C. for 24 hours under a normal atmosphere (incubator with open air valve and continuous ventilation). At the end of incubation, one day after inoculation, the bacterial growth was quantitated fluorometrically. Therefore resazurin (0.6 mg/ml) was added in a volume of 20 μl to all wells 3 hours after inoculation, and the plates were re-incubated overnight. A change in colour from blue to pink indicated the growth of bacteria. The fluorescence was read in a computer-controlled fluorometer (Cytofluor Biosearch) at an excitation wavelength of 530 nm and an emission wavelength of 590 nm. The % growth inhibition achieved by the compounds was calculated according to standard methods.

The test system of series [2] is Streptococcus pneumoniae (ATCC6305). Description: Microtitre plate assay, IC90 determination, SPN 6305. The series is classed as cell-based. Conditions: 90% inhibitory concentration for bacterial growth, resazurin. As to the method: as §1, §2, §3
In general terms: The colour change of resazurin is a common sign of viable cells or microbes.

Series [3] relates to Enterococcus faecalis (ATCC29212). Description: Microtitre plate assay, IC90 determination, EFA 29212. Type of series: cell-based. As to the method: as §1, §2, §3
The test system of series [4] is Streptococcus pyogens (ATCC8668). Description: Microtitre plate assay, IC90 determination, SPY 8668. Type of series: cell-based. The method, then:
as §1, §2, §3

Series [5] has as its system Pseudomonas aeruginosa (ATCC27853). Description: Microtitre plate assay, IC90 determination, PAE 27853. Type of series: cell-based. The method, then:
as §1, §2, §3

Series [6] concerns methicilline resistant Staphylococcus aureus (MRSA) (a clinical isolate from the University of Antwerp). Description: Microtitre plate assay, IC90 determination, STA RMETH. The series is classed as cell-based. Conditions: 90% inhibitory concentration for bacterial growth, resazurin; for IC90: Staphylococcus aureus, read-out: IC90 (μg/ml) STA RMETH. As to the method: as §1, §2, §3

For series [7], the system named is Staphylococcus aureus (ATCC25923). Description: Microtitre plate assay, IC90 determination, STA 25923. The series is classed as cell-based. As to the method:
as §1, §2, §3

Where [8] appears, read: ATCC607, 90% inhibitory concentration for bacterial growth, 48 hours, Alamar Blue fluorescence, read-out: M. smegmatis IC90.
Setting [9] is: Streptococcus pneumoniae ATCC6305, read-out: IC90 (μg/ml) SPN 6305.
Where [10] appears, read: Enterococcus faecalis ATCC29212, 90% inhibitory concentration for bacterial growth, resazurin, read-out: IC90 (μg/ml) EFA 29212.
[11] abbreviates: Streptococcus pyogens ATCC8668, 90% inhibitory concentration for bacterial growth, resazurin, read-out: IC90 (μg/ml) SPY 8668.
Setting [12] is: Pseudomonas aeruginosa ATCC27853, 90% inhibitory concentration for bacterial growth, resazurin, read-out: IC90 (μg/ml) PAE 27853.
[13] abbreviates: Staphylococcus aureus ATCC25923, 90% inhibitory concentration for bacterial growth, resazurin, read-out: IC90 (μg/ml) STA 25923.
The mark [14] stands for this setting: 90% inhibitory concentration for bacterial growth, 48 hours, Alamar Blue fluorescence.
Where [15] appears, read: Streptococcus pneumoniae ATCC6305.
Setting [16] is: Enterococcus faecalis ATCC29212, 90% inhibitory concentration for bacterial growth, resazurin.
[17] abbreviates: Streptococcus pyogens ATCC8668, 90% inhibitory concentration for bacterial growth, resazurin.
[18] abbreviates: Pseudomonas aeruginosa ATCC27853, 90% inhibitory concentration for bacterial growth, resazurin.

In the case of `COc1nc2ccc(Br)cc2cc1C(/C(=C/CN(C)C)c1cccc2ccccc12)c1ccccc1` (stereo not shown) [Compound 10], the IC90 in the series with M. Smegmatis ATCC607 (setting [8]) worked out at 0.43 µg/mL (≈ 0.8 µM); in series [1], 4.79 µg/mL (≈ 8.91 µM); in series [2] (setting [9]) it was 12 µg/mL (≈ 22.4 µM); in [3] (setting [10]), 5.38 µg/mL (≈ 10 µM); in series [4] (setting [11]), 9.56 µg/mL (≈ 17.8 µM); in series [5] (setting [12]), 21.4 µg/mL (≈ 39.8 µM). Also, the IC90 in [6] came to 12 µg/mL (≈ 22.4 µM); in [7] (setting [13]), 4.27 µg/mL (≈ 7.94 µM).
`COc1nc2ccc(Br)cc2cc1C(=C(CCN(C)C)c1ccccc1)c1ccccc1` [Compound 36]: the “M. smegmatis IC90” value in the series with M. Smegmatis ATCC607 (setting [14]) came to 1.94 µg/mL. For the same molecule, the “IC90 (μg/ml) STA 29213” value in series [1] turned out to be 9.73 µg/mL (≈ 20 µM). The “IC90 (μg/ml) SPN 6305” value in [2] (setting [15]) came to 5.47 µg/mL (≈ 11.2 µM). Also, in series [3] (setting [16]), the “IC90 (μg/ml) EFA 29212” value stood at 12.24 µg/mL (≈ 25.1 µM). The “IC90 (μg/ml) SPY 8668” value in series [4] (setting [17]) came to 9.73 µg/mL (≈ 20 µM). Besides, the “IC90 (μg/ml) PAE 27853” value in series [5] (setting [18]) was found to be 12.24 µg/mL (≈ 25.1 µM). In series [6], the “IC90 (μg/ml) STA RMETH” value stood at 12.24 µg/mL (≈ 25.1 µM). The “IC90 (μg/ml) STA 25923” value in series [7] (Staphylococcus aureus ATCC25923, 90% inhibitory concentration for bacterial growth, resazurin) turned out to be 10.91 µg/mL (≈ 22.4 µM).
For `COc1nc2ccc(Br)cc2cc1C(=C(C)CCN(C)C)c1ccccc1` (mixture of isomers) [Compound 35], the “M. smegmatis IC90” value with M. Smegmatis ATCC607 (setting [14]) is 3.79 µg/mL. Also, the “IC90 (μg/ml) STA 29213” value in [1] is 33.79 µg/mL. The “IC90 (μg/ml) SPN 6305” value in series [2] (setting [15]) is 1.35 µg/mL. Further, the “IC90 (μg/ml) EFA 29212” value in [3] (setting [16]) amounted to 15.09 µg/mL. Further, the “IC90 (μg/ml) SPY 8668” value in series [4] (setting [17]) turned out to be 1.35 µg/mL. In addition, the “IC90 (μg/ml) PAE 27853” value in [5] (setting [18]) is 15.09 µg/mL.
As to `COc1nc2ccc(Br)cc2cc1C(/C(=C/CN(C)C)CCc1ccccc1)c1ccccc1` (stereo not shown) [Compound 13], the IC90 with M. Smegmatis ATCC607 (ATCC607, 48 h, read-out: M. smegmatis IC90 (μg/ml), 90% inhibitory concentration for bacterial growth, Alamar Blue fluorescence) was 1.73 µg/mL (≈ 3.36 µM); in [2] (Streptococcus pneumoniae, ATCC6305, read-out: IC90 (μg/ml) SPN 6305, Streptococcus pneumoniae ATCC6305), 8.67 µg/mL (≈ 16.8 µM); in series [3] (Enterococcus faecalis, ATCC29212, read-out: IC90 (μg/ml) EFA 29212) it was 12.2 µg/mL (≈ 23.7 µM); in series [4] (Streptococcus, ATCC8668, read-out: IC90 (μg/ml) SPY 8668), 9.73 µg/mL (≈ 18.9 µM); in series [5] (Pseudomonas aeruginosa, ATCC27853, read-out: IC90 (μg/ml) PAE 27853), 12.2 µg/mL (≈ 23.7 µM); in series [7] (Staphylococcus aureus, ATCC25923, read-out: IC90 (μg/ml) STA 25923), 10.9 µg/mL (≈ 21.2 µM).
`COc1nc2ccc(Br)cc2cc1C(/C(=C/CN(C)C)CCc1ccccc1)c1ccccc1` (stereo not shown) [Compound 8]: the melting point was found to be 128 °C. Also, the IC90 in the series with M. Smegmatis ATCC607 (setting [8]) amounted to 1.63 µg/mL (≈ 3.16 µM). Moreover, in [1], the IC90 is 8.17 µg/mL (≈ 15.8 µM). Also, in [2] (setting [9]), the IC90 was 2.05 µg/mL (≈ 3.98 µM).
As to `COc1nc2ccc(-c3ccccc3)cc2cc1C(C(=CCN(C)C)c1cccc2ccccc12)c1ccccc1` (mixture of isomers) [Compound 32], the “M. smegmatis IC90” value in the series with M. Smegmatis ATCC607 (setting [14]) was 1.69 µg/mL. Besides, the “IC90 (μg/ml) STA 29213” value in [1] amounted to 1.69 µg/mL. The “IC90 (μg/ml) SPN 6305” value in series [2] (setting [15]) was determined as 1.9 µg/mL. In [3] (setting [16]), the “IC90 (μg/ml) EFA 29212” value amounted to 9.51 µg/mL. In series [4] (setting [17]), the “IC90 (μg/ml) SPY 8668” value came out at 3.79 µg/mL. Moreover, the “IC90 (μg/ml) PAE 27853” value in [5] (setting [18]) worked out at 3.79 µg/mL.
Regarding `COc1nc2ccc(Br)cc2cc1/C(=C(/CCN(C)C)c1cccc2ccccc12)c1ccccc1` [Compound 9], the IC90 in the series on M. Smegmatis ATCC607 (setting [8]) is 1.7 µg/mL (≈ 3.16 µM); in series [1], 2.69 µg/mL (≈ 5 µM); in series [2] (setting [9]), 9.56 µg/mL (≈ 17.8 µM); in series [3] (setting [10]), 10.7 µg/mL (≈ 19.9 µM); in [4] (setting [11]), 10.7 µg/mL (≈ 19.9 µM); in series [5] (setting [12]), 9.56 µg/mL (≈ 17.8 µM). For the same molecule, the IC90 in series [6] was found to be 3.81 µg/mL (≈ 7.09 µM); in series [7] (setting [13]), 5.38 µg/mL (≈ 10 µM).

Values taken from patent US20100069366A1, “ANTIBACTERIAL QUINOLINE DERIVATIVES” (JANSSEN-CILAG, priority 2006, published 2010).
